In patent US6673791B2, “Non-nucleoside reverse transcriptase inhibitors” (Boehringer Ingelheim (Canada) Ltd., priority 2001, dated 2004):
Where two headings read alike, the source gives them in different places.

Key:
[1] = tested on: K103N/Y181C (HIV-1 double mutant strain); experiment: EC50 assay, K103N/Y181C strain; assay type: cell-based
From the text: (§1) Reverse TranscriptASE (RT) Assays
(§2) The assays are as described in WO 01/96338A1, the contents of which are hereby incorporated herein. The results are listed in Tables 8 as IC50(nM) and EC50(nM).

[2] = target: T1, V106A mutant RT (HIV-1 RT) (Human immunodeficiency virus type 1 group M subtype B, UniProt P03366, V705A); experiment: biochemical
T1 construct: mutations that occur in the reverse transcriptase segment of the pol gene
From the text: (§3) Based upon testing of these compounds, as described below, it is known that they inhibit the RNA-dependent DNA polymerase activity of HIV-1 RT. […] Utilising the Reverse Transcriptase (RT) Assay described below, compounds can be tested for their ability to inhibit the RNA-dependent DNA polymerase activity of HIV-1 RT. Certain specific compounds described in the Examples which appear below, were so tested. The results of this testing appear in Table 4 as IC50 (nM) and Table 5 as EC50 (nM).
as §1, §2

[3] = target: T2, Y188L mutant RT (HIV-1 RT) (Human immunodeficiency virus type 1 group M subtype B, UniProt P03366, Y787L); experiment: biochemical
T2 construct: mutations that occur in the reverse transcriptase segment of the pol gene
From the text: as §3, §1, §2

[4] = target: T3, K103N/Y181C double mutant RT (HIV-1 RT) (Human immunodeficiency virus type 1 group M subtype B, UniProt P03366, K702N/Y780C); experiment: biochemical
T3 construct: mutations that occur in the reverse transcriptase segment of the pol gene
From the text: as §3, §1, §2

[5] = target: T4, WT RT (HIV-1 RT) (Human immunodeficiency virus type 1 group M subtype B, UniProt P03366); experiment: biochemical
T4 construct: mutations that occur in the reverse transcriptase segment of the pol gene
From the text: as §3, §1, §2

[6] = tested on: V106A (HIV-1 mutant strain); experiment: EC50 assay, V106A strain; assay type: cell-based; conditions: Human immunodeficiency virus 1, read-out: EC50 V106A (nM)
From the text: as §1, §2

[7] = tested on: WT RT (HIV-1 wild type strain); experiment: EC50 assay, WT RT strain; assay type: cell-based
From the text: as §1, §2

[8] = Human immunodeficiency virus 1, read-out: EC50 K103N/Y181C (nM), K103N/Y181C double mutant
[9] = Human immunodeficiency virus 1, read-out: EC50 WT RT (nM)
[10] = K103N/Y181C double mutant, read-out: EC50 K103N/Y181C
[11] = K103N/Y181C double mutant RT, read-out: IC50 K103N/Y181C
[12] = wild type RT, read-out: IC50 WT RT
[13] = wild type, read-out: EC50 WT RT

Compound	EC50 [1, 8]	IC50 ([2]; IC50 V106A (nM))	IC50 ([3]; IC50 Y188L (nM))	IC50 [4]	IC50 [5]	EC50 [6]	EC50 [7, 9]	EC50 [1, 10]	IC50 ([2]; read-out: IC50 V106A)	IC50 ([3]; read-out: IC50 Y188L)	IC50 [4, 11]	IC50 [5, 12]	EC50 [7, 13]
CCN1c2ncc(CCOc3ccc(NS(=O)(=O)C(F)(F)F)c4ccccc34)cc2C(=O)N(C)c2ccc(F)nc21 [Entry 2002]	< 100 nM	> 1000 nM	> 1000 nM	0.1 to 1 µM	< 0.1 µM	100 to 1000 nM	< 100 nM	–	–	–	–	–	–
CCN1c2ncc(CCOc3ccc(C(=O)O)c4c3CCN(C(=O)OC)C4)cc2C(=O)N(C)c2cccnc21 [Entry 7002]	< 100 nM	> 1000 nM	100 to 1000 nM	0.1 to 1 µM	< 0.1 µM	100 to 1000 nM	< 100 nM	–	–	–	–	–	–
CCN1c2ncc(CCOc3ccc(CC(=O)O)c4c3CCCC4)cc2C(=O)N(C)c2ccc(Cl)nc21 [Entry 5007]	< 100 nM	100 to 1000 nM	100 to 1000 nM	0.1 to 1 µM	< 0.1 µM	–	< 100 nM	–	–	–	–	–	–
CCN1c2ncc(CCOc3ccc(C(=O)O)c4c3CCN(C(=O)N(C)C)C4)cc2C(=O)N(C)c2cccnc21 [Entry 7007]	< 100 nM	100 to 1000 nM	100 to 1000 nM	< 0.1 µM	< 0.1 µM	–	< 100 nM	–	–	–	–	–	–
C=C(CC(=O)O)c1ccc(OCCc2cnc3c(c2)C(=O)N(C)c2cccnc2N3CC)c2ccccc12 [Entry 1049]	100 to 1000 nM	> 1000 nM	> 1000 nM	0.1 to 1 µM	< 0.1 µM	–	< 100 nM	–	–	–	–	–	–
CCN1c2ncc(CCOc3ccc(CCC(=O)O)c4ccccc34)cc2C(=O)N(C)c2ccc(F)nc21 [Entry 1023]	< 100 nM	> 1000 nM	> 1000 nM	0.1 to 1 µM	< 0.1 µM	–	< 100 nM	–	–	–	–	–	–
CCN1c2ncc(CCOc3ccc(CC(C)C(=O)O)c4ccccc34)cc2C(=O)N(C)c2cccnc21 (stereo not drawn) [Entry 1042]	< 100 nM	> 1000 nM	> 1000 nM	0.1 to 1 µM	< 0.1 µM	–	< 100 nM	–	–	–	–	–	–
CCN1c2ncc(CCOc3ccc(C(=O)O)c4c3CCCC4)cc2C(=O)N(C)c2ccc(C)nc21 [Entry 5004]	< 100 nM	> 1000 nM	100 to 1000 nM	0.1 to 1 µM	< 0.1 µM	–	< 100 nM	–	–	–	–	–	–
CCN1c2ncc(CCOc3cccc4c(S(=O)(=O)NCC(=O)O)cccc34)cc2C(=O)N(C)c2cccnc21 [Entry 2008]	100 to 1000 nM	100 to 1000 nM	100 to 1000 nM	< 0.1 µM	< 0.1 µM	–	100 to 1000 nM	–	–	–	–	–	–
CCNC(=O)N1CCc2c(OCCc3cnc4c(c3)C(=O)N(C)c3cccnc3N4CC)ccc(C(=O)O)c2C1 [Entry 7006]	> 1000 nM	100 to 1000 nM	> 1000 nM	0.1 to 1 µM	< 0.1 µM	–	100 to 1000 nM	–	–	–	–	–	–
CCN1c2ncc(CCOc3ccc(C(=O)O)c4c3CCN(C(=O)OC(C)(C)C)C4)cc2C(=O)N(C)c2cccnc21 [Entry 7003]	< 100 nM	> 1000 nM	100 to 1000 nM	0.1 to 1 µM	< 0.1 µM	–	< 100 nM	–	–	–	–	–	–
CCN1c2ncc(CCOc3ccc(/C=C/C(=O)O)c4ccccc34)cc2C(=O)Nc2c(C)cc(F)nc21 [Entry 1034]	< 100 nM	< 100 nM	> 1000 nM	0.1 to 1 µM	< 0.1 µM	–	< 100 nM	–	–	–	–	–	–
CCN1c2ncc(CCOc3ccc(C(=O)O)c4c3CCCC4)cc2C(=O)N(C)c2ccc(OC)nc21 [Entry 5005]	< 100 nM	> 1000 nM	100 to 1000 nM	0.1 to 1 µM	< 0.1 µM	–	< 100 nM	–	–	–	–	–	–
CCN1c2ncc(CCOc3ccc(CC(=O)NS(C)(=O)=O)c4ccccc34)cc2C(=O)N(C)c2cccnc21 [Entry 1019]	–	–	–	–	–	–	–	100 to 1000 nM	> 1000 nM	> 1000 nM	0.1 to 1 µM	< 0.1 µM	< 100 nM
CCN1c2ncc(CCOc3ccc(/C=C(\C)C(=O)O)c4ccccc34)cc2C(=O)N(C)c2cccnc21 [Entry 1035]	< 100 nM	> 1000 nM	> 1000 nM	0.1 to 1 µM	< 0.1 µM	–	< 100 nM	–	–	–	–	–	–
CCN1c2ncc(CCOc3ccc(C(=O)O)c4ccccc34)cc2C(=O)N(C)c2ccc(Cl)nc21 [Entry 1002]	< 100 nM	100 to 1000 nM	100 to 1000 nM	< 0.1 µM	< 0.1 µM	–	< 100 nM	–	–	–	–	–	–
CCN1c2ncc(CCOc3ccc(C(=O)O)c4c3CCC4)cc2C(=O)N(C)c2cccnc21 [Entry 4001]	< 100 nM	100 to 1000 nM	> 1000 nM	0.1 to 1 µM	< 0.1 µM	–	< 100 nM	–	–	–	–	–	–
CCN1c2ncc(CCOc3ccc(CCC(=O)O)c4ccccc34)cc2C(=O)N(C)c2ccc(Cl)nc21 [Entry 1022]	< 100 nM	100 to 1000 nM	> 1000 nM	0.1 to 1 µM	< 0.1 µM	–	< 100 nM	–	–	–	–	–	–
CCN1c2ncc(CCOc3ccc(/C=C/C(=O)O)c4ccccc34)cc2C(=O)Nc2c(C)ccnc21 [Entry 1031]	< 100 nM	100 to 1000 nM	> 1000 nM	0.1 to 1 µM	< 0.1 µM	–	< 100 nM	–	–	–	–	–	–
CCN1c2ncc(CCOc3ccc(C(=O)O)c4c3CCCC4)cc2C(=O)N(C)c2ccc(Cl)nc21 [Entry 5002]	< 100 nM	> 1000 nM	100 to 1000 nM	0.1 to 1 µM	< 0.1 µM	–	< 100 nM	–	–	–	–	–	–
CCN1c2ncc(CCOc3ccc(C(=O)O)c4c3CCN(S(=O)(=O)N(C)C)C4)cc2C(=O)N(C)c2cccnc21 [Entry 7008]	< 100 nM	100 to 1000 nM	100 to 1000 nM	< 0.1 µM	< 0.1 µM	–	< 100 nM	–	–	–	–	–	–
CCN1c2ncc(CCOc3ccc(/C=C(\C)C(=O)O)c4ccccc34)cc2C(=O)N(C)c2ccc(F)nc21 [Entry 1037]	< 100 nM	> 1000 nM	> 1000 nM	0.1 to 1 µM	< 0.1 µM	–	< 100 nM	–	–	–	–	–	–
CCN1c2ncc(CCOc3ccc(C(C)CC(=O)O)c4ccccc34)cc2C(=O)N(C)c2cccnc21 (stereo not drawn) [Entry 1051]	< 100 nM	> 1000 nM	> 1000 nM	0.1 to 1 µM	< 0.1 µM	–	< 100 nM	–	–	–	–	–	–
CCN1c2ncc(CCOc3ccc(CCC(=O)NN)c4ccccc34)cc2C(=O)N(C)c2cccnc21 [Entry 2020]	–	–	–	–	–	–	–	100 to 1000 nM	> 1000 nM	> 1000 nM	0.1 to 1 µM	< 0.1 µM	< 100 nM
CCN1c2ncc(CCOc3ccc(CC(=O)O)c4c3CCCC4)cc2C(=O)N(C)c2ccc(F)nc21 [Entry 5008]	< 100 nM	> 1000 nM	> 1000 nM	0.1 to 1 µM	< 0.1 µM	–	< 100 nM	–	–	–	–	–	–
CCN1c2ncc(CCOc3ccc(C(C)C(=O)O)c4ccccc34)cc2C(=O)N(C)c2cccnc21 (stereo not drawn) [Entry 1020]	< 100 nM	> 1000 nM	> 1000 nM	0.1 to 1 µM	< 0.1 µM	–	< 100 nM	–	–	–	–	–	–
CCN1c2ncc(CCOc3ccc(CC(=O)O)c4ccccc34)cc2C(=O)Nc2c(C)cc(Cl)nc21 [Entry 1012]	100 to 1000 nM	100 to 1000 nM	> 1000 nM	0.1 to 1 µM	< 0.1 µM	–	< 100 nM	–	–	–	–	–	–
CCN1c2ncc(CCOc3ccc(C(=O)O)c4c3CCCC4)cc2C(=O)N(C)c2cccnc21 [Entry 5001]	< 100 nM	> 1000 nM	> 1000 nM	0.1 to 1 µM	< 0.1 µM	100 to 1000 nM	< 100 nM	–	–	–	–	–	–
